Source: patent publication US10407430B2, “Janus kinase 1 selective inhibitor and pharmaceutical use thereof” (YANG JI CHEMICAL CO., LTD., priority 2015, dated 2019)
pIC50: −log10 of the molar value.

How the values were obtained:
Format in all cases: biochemical
Human TYK2 = target: T1, Human TYK2 (Homo sapiens, UniProt P29597); experiment: In-vitro kinase inhibition test, TYK2; conditions: for inhibition at 1 µM: compound at 1 uM, read-out: TYK2 kinase-phosphorylation inhibitory level (% inhibition)
T1 construct: purchased Millipore, Germany
T1 sequence (P29597 whole entry): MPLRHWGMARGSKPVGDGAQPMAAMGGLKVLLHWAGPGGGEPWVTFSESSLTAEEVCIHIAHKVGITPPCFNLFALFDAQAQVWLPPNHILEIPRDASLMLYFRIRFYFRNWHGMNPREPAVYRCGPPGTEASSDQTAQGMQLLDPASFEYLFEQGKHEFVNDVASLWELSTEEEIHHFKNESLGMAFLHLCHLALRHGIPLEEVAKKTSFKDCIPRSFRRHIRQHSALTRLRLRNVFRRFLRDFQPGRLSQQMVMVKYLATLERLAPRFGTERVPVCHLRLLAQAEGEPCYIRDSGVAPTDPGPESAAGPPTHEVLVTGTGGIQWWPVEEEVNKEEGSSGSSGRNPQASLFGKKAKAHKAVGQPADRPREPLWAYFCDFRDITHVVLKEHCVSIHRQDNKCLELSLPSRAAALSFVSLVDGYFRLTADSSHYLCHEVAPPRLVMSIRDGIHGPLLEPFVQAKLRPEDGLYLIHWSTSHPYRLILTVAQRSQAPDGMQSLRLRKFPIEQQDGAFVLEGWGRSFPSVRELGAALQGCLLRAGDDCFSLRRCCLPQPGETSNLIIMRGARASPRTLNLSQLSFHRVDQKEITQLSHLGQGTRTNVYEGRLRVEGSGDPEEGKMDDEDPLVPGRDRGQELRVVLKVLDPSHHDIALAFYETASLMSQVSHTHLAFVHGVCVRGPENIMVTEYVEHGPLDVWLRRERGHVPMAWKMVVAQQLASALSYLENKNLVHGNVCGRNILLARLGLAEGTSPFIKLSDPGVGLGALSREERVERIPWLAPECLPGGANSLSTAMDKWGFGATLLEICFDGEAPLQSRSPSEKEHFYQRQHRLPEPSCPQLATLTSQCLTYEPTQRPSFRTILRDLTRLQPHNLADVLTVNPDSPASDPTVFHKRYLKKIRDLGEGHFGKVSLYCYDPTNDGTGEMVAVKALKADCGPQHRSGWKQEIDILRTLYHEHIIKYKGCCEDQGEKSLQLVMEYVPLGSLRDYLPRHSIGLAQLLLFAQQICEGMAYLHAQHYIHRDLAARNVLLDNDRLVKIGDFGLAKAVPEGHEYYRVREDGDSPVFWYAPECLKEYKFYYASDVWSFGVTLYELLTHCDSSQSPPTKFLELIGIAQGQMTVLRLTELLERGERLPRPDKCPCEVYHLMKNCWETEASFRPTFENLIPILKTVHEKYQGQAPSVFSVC
Method: (§1) Human-derived JAK1, JAK2, JAK3 and TYK2 (Millipore, Germany) were used as kinases. Each kinase was diluted with an appropriate buffer as described below, and then mixed with reaction reagents.
(§2) 3-morpholinopropane-1-sulfonic acid (MOPS) and EDTA were dissolved in deionized water at a concentration of 20 mM and 1 mM, respectively, and then 100 μL of β-mercaptoethanol, 10 μL of Brij-35™, 5 mL of glycerol, and 100 mg of bovine serum albumin (BSA), each per 100 mL of the solution, were added to the solution, thereby preparing a dilution buffer for JAK2, JAK3, and TYK2.
(§3) Each compound was dissolved in a 100%-DMSO solution at a concentration of about 50 μM. This prepared solution was reacted with reaction reagents in each well of a 96-well plate until a final concentration of the compound reached 1 μM. A detailed experimental method for each kinase is as follows.
(§4) After reaction for about 40 minutes at room temperature, the reaction was stopped by adding 5 uL of a 3% (v/v) phosphoric acid solution.
(§5) The inhibitory levels (% inhibition) represent a percentage of reduction in phosphorylation activity in each test group with respect to the phosphorylation activity of a corresponding kinase in a negative control group lacking any of the compounds synthesized in the examples. % inhibition=[(Scintillation value of Test compound non-treatment group−Scintillation value of Test compound treatment group)/(Scintillation value of Test compound non-treatment group)]×100

Human JAK3 = target: T2, Human JAK3 (Homo sapiens, UniProt P52333); experiment: In-vitro kinase inhibition test, JAK3; conditions: for inhibition at 1 µM: compound at 1 uM, read-out: JAK3 kinase-phosphorylation inhibitory level (% inhibition)
T2 construct: purchased Millipore, Germany
T2 sequence (P52333 1-1124): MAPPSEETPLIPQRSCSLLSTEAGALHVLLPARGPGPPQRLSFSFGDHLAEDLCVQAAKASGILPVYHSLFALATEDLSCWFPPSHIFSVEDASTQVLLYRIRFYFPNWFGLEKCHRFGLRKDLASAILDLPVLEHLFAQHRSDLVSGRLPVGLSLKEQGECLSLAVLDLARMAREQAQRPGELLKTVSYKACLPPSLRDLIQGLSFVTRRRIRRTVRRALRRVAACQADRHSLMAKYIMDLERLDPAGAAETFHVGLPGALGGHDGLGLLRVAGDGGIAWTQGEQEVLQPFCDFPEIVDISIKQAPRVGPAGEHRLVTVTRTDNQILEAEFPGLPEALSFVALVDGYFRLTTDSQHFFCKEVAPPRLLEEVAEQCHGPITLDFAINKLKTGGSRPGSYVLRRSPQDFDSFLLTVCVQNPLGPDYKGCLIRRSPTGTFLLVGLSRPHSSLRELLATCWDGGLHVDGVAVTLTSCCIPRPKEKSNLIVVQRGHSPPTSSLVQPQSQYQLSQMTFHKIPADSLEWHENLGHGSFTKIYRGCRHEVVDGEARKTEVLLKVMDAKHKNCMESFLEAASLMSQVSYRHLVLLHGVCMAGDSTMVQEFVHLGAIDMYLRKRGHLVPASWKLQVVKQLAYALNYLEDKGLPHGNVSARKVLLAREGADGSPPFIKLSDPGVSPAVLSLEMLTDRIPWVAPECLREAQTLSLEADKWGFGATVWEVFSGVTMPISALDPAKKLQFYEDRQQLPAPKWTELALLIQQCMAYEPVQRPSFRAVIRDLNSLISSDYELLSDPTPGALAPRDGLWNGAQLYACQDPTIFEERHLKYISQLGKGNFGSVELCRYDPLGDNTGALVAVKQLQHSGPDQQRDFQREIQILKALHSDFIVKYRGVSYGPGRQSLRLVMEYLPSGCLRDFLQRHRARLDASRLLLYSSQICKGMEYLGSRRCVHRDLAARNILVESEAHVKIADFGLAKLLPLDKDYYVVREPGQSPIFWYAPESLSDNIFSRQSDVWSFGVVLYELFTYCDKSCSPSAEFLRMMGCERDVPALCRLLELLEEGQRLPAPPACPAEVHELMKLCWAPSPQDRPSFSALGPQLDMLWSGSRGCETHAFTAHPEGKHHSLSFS

Human JAK1 = target: T3, Human JAK1 (Homo sapiens, UniProt P23458); experiment: In-vitro kinase inhibition test, JAK1; conditions: for inhibition at 1 µM: compound at 1 uM, read-out: JAK1 kinase-phosphorylation inhibitory level (% inhibition); for JAK1/JAK2: ratio of % inhibition of JAK1 to JAK2 at 1 uM
T3 construct: purchased Millipore, Germany
T3 sequence (P23458 whole entry): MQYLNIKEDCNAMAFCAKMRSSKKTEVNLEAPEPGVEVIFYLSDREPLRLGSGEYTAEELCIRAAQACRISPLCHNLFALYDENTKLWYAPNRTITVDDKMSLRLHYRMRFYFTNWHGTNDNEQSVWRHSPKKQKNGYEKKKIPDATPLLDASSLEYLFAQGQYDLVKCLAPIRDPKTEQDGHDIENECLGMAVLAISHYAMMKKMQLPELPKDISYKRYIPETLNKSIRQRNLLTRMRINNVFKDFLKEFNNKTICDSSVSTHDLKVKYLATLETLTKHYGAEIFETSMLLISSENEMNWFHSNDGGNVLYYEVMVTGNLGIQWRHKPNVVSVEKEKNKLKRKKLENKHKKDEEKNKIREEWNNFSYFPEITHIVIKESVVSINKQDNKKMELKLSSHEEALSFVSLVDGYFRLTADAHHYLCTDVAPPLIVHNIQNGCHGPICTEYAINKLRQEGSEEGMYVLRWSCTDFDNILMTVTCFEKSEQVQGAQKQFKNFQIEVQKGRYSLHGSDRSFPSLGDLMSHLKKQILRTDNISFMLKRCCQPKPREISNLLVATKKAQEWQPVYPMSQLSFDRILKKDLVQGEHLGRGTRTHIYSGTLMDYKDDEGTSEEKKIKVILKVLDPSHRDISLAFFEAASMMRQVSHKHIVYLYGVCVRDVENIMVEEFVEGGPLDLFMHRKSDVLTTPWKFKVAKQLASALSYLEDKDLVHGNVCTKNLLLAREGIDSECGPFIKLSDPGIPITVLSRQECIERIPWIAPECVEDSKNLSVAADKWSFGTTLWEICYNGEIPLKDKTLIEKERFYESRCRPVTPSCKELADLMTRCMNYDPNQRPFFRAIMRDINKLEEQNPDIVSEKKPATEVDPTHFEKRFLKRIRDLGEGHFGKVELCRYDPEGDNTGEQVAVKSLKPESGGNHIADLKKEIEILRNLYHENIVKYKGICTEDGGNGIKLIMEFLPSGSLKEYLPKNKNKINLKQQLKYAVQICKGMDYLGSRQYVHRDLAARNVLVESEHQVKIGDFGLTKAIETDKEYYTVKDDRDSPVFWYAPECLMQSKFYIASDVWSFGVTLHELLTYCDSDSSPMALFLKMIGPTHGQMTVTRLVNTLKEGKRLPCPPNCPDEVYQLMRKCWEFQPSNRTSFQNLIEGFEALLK

Human JAK2 = target: T4, Human JAK2 (Homo sapiens, UniProt O60674); experiment: In-vitro kinase inhibition test, JAK2; conditions: for inhibition at 1 µM: compound at 1 uM, read-out: JAK2 kinase-phosphorylation inhibitory level (% inhibition)
T4 construct: purchased Millipore, Germany
T4 sequence (O60674 whole entry): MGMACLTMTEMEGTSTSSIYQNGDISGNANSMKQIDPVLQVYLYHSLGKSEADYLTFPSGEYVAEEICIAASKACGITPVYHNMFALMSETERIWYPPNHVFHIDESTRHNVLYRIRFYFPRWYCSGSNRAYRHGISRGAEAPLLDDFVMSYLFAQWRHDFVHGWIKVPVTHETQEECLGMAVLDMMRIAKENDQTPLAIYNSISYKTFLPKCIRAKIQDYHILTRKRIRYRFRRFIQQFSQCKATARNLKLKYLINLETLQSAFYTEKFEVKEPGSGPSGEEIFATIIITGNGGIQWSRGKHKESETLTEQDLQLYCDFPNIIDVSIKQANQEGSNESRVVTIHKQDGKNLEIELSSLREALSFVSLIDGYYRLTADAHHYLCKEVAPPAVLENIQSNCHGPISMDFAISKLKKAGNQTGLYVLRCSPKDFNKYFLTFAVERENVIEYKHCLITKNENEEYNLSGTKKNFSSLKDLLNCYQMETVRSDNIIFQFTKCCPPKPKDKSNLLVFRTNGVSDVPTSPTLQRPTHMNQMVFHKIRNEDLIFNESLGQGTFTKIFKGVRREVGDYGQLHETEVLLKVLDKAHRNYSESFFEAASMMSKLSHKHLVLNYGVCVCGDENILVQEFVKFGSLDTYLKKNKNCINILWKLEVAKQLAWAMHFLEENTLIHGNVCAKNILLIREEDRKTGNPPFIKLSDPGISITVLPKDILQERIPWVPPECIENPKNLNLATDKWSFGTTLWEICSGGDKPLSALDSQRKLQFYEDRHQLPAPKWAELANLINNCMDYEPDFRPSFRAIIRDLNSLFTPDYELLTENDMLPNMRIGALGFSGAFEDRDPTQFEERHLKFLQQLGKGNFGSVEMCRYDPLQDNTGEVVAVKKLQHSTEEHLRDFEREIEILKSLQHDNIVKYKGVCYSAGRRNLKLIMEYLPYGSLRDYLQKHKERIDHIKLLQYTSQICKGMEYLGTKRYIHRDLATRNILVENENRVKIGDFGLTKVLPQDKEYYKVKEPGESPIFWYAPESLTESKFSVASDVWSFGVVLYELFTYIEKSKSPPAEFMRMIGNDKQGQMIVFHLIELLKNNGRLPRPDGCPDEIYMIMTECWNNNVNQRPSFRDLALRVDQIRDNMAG
Method: as §1, §2, §3, §4, §5

| SMILES | inhibition at 1 µM (Human TYK2) [%] | inhibition at 1 µM (Human JAK3) [%] | inhibition at 1 µM (Human JAK1) [%] | JAK1/JAK2 (Human JAK1) | inhibition at 1 µM (Human JAK2) [%] | pIC50 (Human TYK2) | pIC50 (Human JAK3) | pIC50 (Human JAK1) | pIC50 (Human JAK2) |
| --- | --- | --- | --- | --- | --- | --- | --- | --- | --- |
| CN(c1ncnc2[nH]ccc12)[C@@H]1CCN(S(=O)(=O)c2ccccc2[N+](=O)[O-])C1 [Example 21, (R)—N-methyl-N-(1-((2-nitrophenyl)sulfonyl)pyrrolidine-3-yl)-7H-pyrrolo[2,3-d]pyrimidine-4-amine] | 67 | 21 | 93 | 1.94 | 48 |  |  |  |  |
| CN(c1ncnc2[nH]ccc12)[C@@H]1CCN(S(=O)(=O)c2cccc([N+](=O)[O-])c2)C1 [Example 22, (R)—N-methyl-N-(1-((3-nitrophenyl)sulfonyl)pyrrolidine-3-yl)-7H-pyrrolo[2,3-d]pyrimidine-4-amine] | 99 | 74 | 100 | 1.03 | 97 |  |  |  |  |
| CN(c1ncnc2[nH]ccc12)[C@@H]1CCN(S(=O)(=O)c2ccc([N+](=O)[O-])cc2)C1 [Example 23, (R)—N-methyl-N-(1-((4-nitrophenyl)sulfonyl)pyrrolidine-3-yl)-7H-pyrrolo[2,3-d]pyrimidine-4-amine] | 94 | 31 | 100 | 1.19 | 84 |  |  |  |  |
| Cc1cccc(S(=O)(=O)N2CC[C@@H](N(C)c3ncnc4[nH]ccc34)C2)c1 [Example 24, (R)—N-methyl-N-(1-(m-tolylsulfonyl)pyrrolidine-3-yl)-7H-pyrrolo[2,3-d]pyrimidine-4-amine] | 87 | 8 | 95 | 1.79 | 53 |  |  |  |  |
| Cc1ccc(S(=O)(=O)N2CC[C@@H](N(C)c3ncnc4[nH]ccc34)C2)cc1 [Example 25, (R)—N-methyl-N-(1-tosylpyrrolidine-3-yl)-7H-pyrrolo[2,3-d]pyrimidine-4-amine] | 68 | 10 | 97 | 2.31 | 42 |  |  |  |  |
| COc1ccc(S(=O)(=O)N2CC[C@@H](N(C)c3ncnc4[nH]ccc34)C2)cc1 [Example 26, (R)—N-(1-((4-methoxyphenyl)sulfonyl)pyrrolidine-3-yl)-N-methyl-7H-pyrrolo[2,3-d]pyrimidine-4-amine] | 71 | 10 | 98 | 2.23 | 44 |  |  |  |  |
| CN(c1ncnc2[nH]ccc12)[C@@H]1CCN(S(=O)(=O)c2ccc(C(F)(F)F)cc2)C1 [Example 27, (R)—N-methyl-N-(1-((4-(trifluoromethyl)phenyl)sulfonyl)pyrrolidine-3-yl)-7H-pyrrolo[2,3-d]pyrimidine-4-amine] | 56 | 4 | 96 | 4.57 | 21 |  |  |  |  |
| CN(c1ncnc2[nH]ccc12)[C@@H]1CCN(S(=O)(=O)c2ccc3ccccc3c2)C1 [Example 28, (R)—N-methyl-N-(1-(naphthalene-2-ylsulfonyl)pyrrolidine-3-yl)-7H-pyrrolo[2,3-d]pyrimidine-4-amine] | 82 | 23 | 99 | 1.74 | 57 |  |  |  |  |
| CN(c1ncnc2[nH]ccc12)[C@@H]1CCN(S(=O)(=O)N2CCCCC2)C1 [Example 29, (R)—N-methyl-N-(1-(piperidine-1-ylsulfonyl)pyrrolidine-3-yl)-7H-pyrrolo[2,3-d]pyrimidine-4-amine] | 65 | 10 | 91 | 4.33 | 21 |  |  |  |  |
| CN(c1ncnc2[nH]ccc12)[C@@H]1CCN(S(=O)(=O)N2CCOCC2)C1 [Example 30, (R)—N-methyl-N-(1-(morpholinosulfonyl)pyrrolidine-3-yl)-7H-pyrrolo[2,3-d]pyrimidine-4-amine] | 44 | 13 | 87 | 14.50 | 6 |  |  |  |  |
| N#Cc1cccc(S(=O)(=O)N2CC[C@@H](Nc3ncnc4[nH]ccc34)C2)c1 [Example 32, (R)-3-((3-((7H-pyrrolo[2,3-d]pyrimidine-4-yl)amino)pyrrolidine-1-yl)sulfonyl)benzonitrile] | 30 | 3 | 67 | 2.31 | 29 |  |  |  |  |
| CCN(c1ncnc2[nH]ccc12)[C@@H]1CCN(C(=O)CC#N)C1 [Example 33, (R)-3-(3-(ethyl(7H-pyrrolo[2,3-d]pyrimidine-4-yl)amino)pyrrolidine-1-yl)-3-oxopropanenitrile] | 94 | 63 | 97 | 1.07 | 91 |  |  |  |  |
| CCN(c1ncnc2[nH]ccc12)[C@@H]1CCN(S(=O)(=O)c2cccc(C#N)c2)C1 [Example 34, (R)-3-((3-(ethyl(7H-pyrrolo[2,3-d]pyrimidine-4-yl)amino)pyrrolidine-1-yl)sulfonyl)benzonitrile] | 92 | 19 | 97 | 1.13 | 86 |  |  |  |  |
| N#CCC(=O)N1CC[C@@H](N(CC2CC2)c2ncnc3[nH]ccc23)C1 [Example 35, (R)-3-(3-((cyclopropylmethyl)(7H-pyrrolo[2,3-d]pyrimidine-4-yl)amino)pyrrolidine-1-yl)-3-oxopropanenitrile] | 37 | 14 | 88 | 2.59 | 34 |  |  |  |  |
| N#Cc1cccc(S(=O)(=O)N2CC[C@@H](N(CC3CC3)c3ncnc4[nH]ccc34)C2)c1 [Example 36, (R)-3-((3-((cyclopropylmethyl)(7H-pyrrolo[2,3-d]pyrimidine-4-yl)amino)pyrrolidine-1-yl)sulfonyl)benzonitrile] | 57 | 10 | 87 | 2.18 | 40 |  |  |  |  |
| CN(c1ncnc2[nH]ccc12)C1CCN(C(=O)CC#N)CC1 [Example 37, 3-(4-(methyl(7H-pyrrolo[2,3-d]pyrimidine-4-yl)amino)piperidine-1-yl)-3-oxopropanenitrile] | -3 | 8 | 49 | 49.00 | 1 |  |  |  |  |
| CN(c1ncnc2[nH]ccc12)C1CCN(S(=O)(=O)c2ccccc2)CC1 [Example 38, N-methyl-N-(1-(phenylsulfonyl)piperidine-4-yl)-7H-pyrrolo[2,3-d]pyrimidine-4-amine] | 97 | 77 | 97 | 1.03 | 94 | 7.73 | 6.83 | 8.38 | 7.72 |
| CN(c1ncnc2[nH]ccc12)C1CCN(S(=O)(=O)c2cccc(C#N)c2)CC1 [Example 39, 3-((4-(methyl(7H-pyrrolo[2,3-d]pyrimidine-4-yl)amino)piperidine-1-yl)sulfonyl)benzonitrile] | 69 | 1 | 87 | 1.47 | 59 |  |  |  |  |
| CN(c1ncnc2[nH]ccc12)[C@@H]1CCCN(C(=O)CC#N)C1 [Example 40, (R)-3-(3-(methyl(7H-pyrrolo[2,3-d]pyrimidine-4-yl)amino)piperidine-1-yl)-3-oxopropanenitrile] | 93 | 81 | 99 | 1.19 | 83 |  |  |  |  |
| CN(c1ncnc2[nH]ccc12)[C@@H]1CCCN(S(=O)(=O)c2cccc(C#N)c2)C1 [Example 41, (R)-3-((3-(methyl(7H-pyrrolo[2,3-d]pyrimidine-4-yl)amino)piperidine-1-yl)sulfonyl)benzonitrile] | 79 | 39 | 92 | 1.44 | 64 |  |  |  |  |
